Test results from patent US8957078B2, “Compounds useful as inhibitors of ATR kinase” (Vertex Pharmaceuticals Incorporated, priority 2013, dated 2015).

Tests used:
[1] = target: T1, ATR kinase (full-length ATR) (Homo sapiens, UniProt Q13535); assay: ATR Inhibition Assay (radioactive-phosphate incorporation); type: biochemical; details: Ki(app); 5 nM full-length ATR, 10 μM ATP, 800 μM target peptide, 25° C.
T1 construct: in the presence of 5 nM full-length ATR

[2] = target: T2, ATR kinase, in the presence of partner proteins ATRIP, CLK2 and TopBP1 (Homo sapiens, UniProt Q13535); assay: ATR-Complex Inhibition Assay (radioactive-phosphate incorporation); type: biochemical; details: Ki(app); 4 nM full-length ATR, 40 nM ATRIP, 40 nM CLK2, 600 nM TopBP1(A891-S1105), 10 μM ATP, 25° C.
T2 construct: in the presence of 4 nM full-length ATR, 40 nM full-length ATRIP
Protocol: Compounds were screened for their ability to inhibit ATR kinase, in the presence of partner proteins ATRIP, CLK2 and TopBP1, using a radioactive-phosphate incorporation assay. Assays were carried out in a mixture of 50 mM Tris/HCl (pH 7.5), 10 mM MgCl2 and 1 mM DTT. Final substrate concentrations were 10 μM [g-33P]ATP (3.5 μCi 33P ATP/nmol ATP, Perkin Elmer, Massachusetts, USA) and 800 μM target peptide (ASELPASQPQPFSAKKK (SEQ. ID NO: 1)), Isca Biochemicals, Cambridgeshire, UK).
Assays were carried out at 25° C. in the presence of 4 nM full-length ATR, 40 nM full-length ATRIP, 40 nM full-length CLK2 and 600 nM TopBP1(A891-S1105). An enzyme stock buffer solution was prepared containing all of the reagents listed above, with the exception of target peptide, ATP and the test compound of interest. This enzyme stock was pre-incubated for 30 minutes at 25° C. […]
After removing mean background values for all of the data points, Ki(app) data were calculated from non-linear regression analysis of the initial rate data using the Prism software package (GraphPad Prism version 6.0c for Macintosh, GraphPad Software Inc., San Diego, USA).

[3] = system: HCT116 colorectal cancer cells; assay: Cisplatin Sensitization Assay (96 h cell viability MTS); type: cell-based; details: concentration of compound required to reduce the IC50 of Cisplatin alone by at least 3-fold; HCT116, 96 h MTS
Outline: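 HCT116 cells treated 96 h at 37 °C with compound and cisplatin together as a full matrix of 2-fold dilutions, each from 10 μM final top concentration. Viability by MTS, absorbance 490 nm. Value reported: compound concentration lowering cisplatin IC50 at least 3-fold.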

T1 sequence (Q13535 whole entry): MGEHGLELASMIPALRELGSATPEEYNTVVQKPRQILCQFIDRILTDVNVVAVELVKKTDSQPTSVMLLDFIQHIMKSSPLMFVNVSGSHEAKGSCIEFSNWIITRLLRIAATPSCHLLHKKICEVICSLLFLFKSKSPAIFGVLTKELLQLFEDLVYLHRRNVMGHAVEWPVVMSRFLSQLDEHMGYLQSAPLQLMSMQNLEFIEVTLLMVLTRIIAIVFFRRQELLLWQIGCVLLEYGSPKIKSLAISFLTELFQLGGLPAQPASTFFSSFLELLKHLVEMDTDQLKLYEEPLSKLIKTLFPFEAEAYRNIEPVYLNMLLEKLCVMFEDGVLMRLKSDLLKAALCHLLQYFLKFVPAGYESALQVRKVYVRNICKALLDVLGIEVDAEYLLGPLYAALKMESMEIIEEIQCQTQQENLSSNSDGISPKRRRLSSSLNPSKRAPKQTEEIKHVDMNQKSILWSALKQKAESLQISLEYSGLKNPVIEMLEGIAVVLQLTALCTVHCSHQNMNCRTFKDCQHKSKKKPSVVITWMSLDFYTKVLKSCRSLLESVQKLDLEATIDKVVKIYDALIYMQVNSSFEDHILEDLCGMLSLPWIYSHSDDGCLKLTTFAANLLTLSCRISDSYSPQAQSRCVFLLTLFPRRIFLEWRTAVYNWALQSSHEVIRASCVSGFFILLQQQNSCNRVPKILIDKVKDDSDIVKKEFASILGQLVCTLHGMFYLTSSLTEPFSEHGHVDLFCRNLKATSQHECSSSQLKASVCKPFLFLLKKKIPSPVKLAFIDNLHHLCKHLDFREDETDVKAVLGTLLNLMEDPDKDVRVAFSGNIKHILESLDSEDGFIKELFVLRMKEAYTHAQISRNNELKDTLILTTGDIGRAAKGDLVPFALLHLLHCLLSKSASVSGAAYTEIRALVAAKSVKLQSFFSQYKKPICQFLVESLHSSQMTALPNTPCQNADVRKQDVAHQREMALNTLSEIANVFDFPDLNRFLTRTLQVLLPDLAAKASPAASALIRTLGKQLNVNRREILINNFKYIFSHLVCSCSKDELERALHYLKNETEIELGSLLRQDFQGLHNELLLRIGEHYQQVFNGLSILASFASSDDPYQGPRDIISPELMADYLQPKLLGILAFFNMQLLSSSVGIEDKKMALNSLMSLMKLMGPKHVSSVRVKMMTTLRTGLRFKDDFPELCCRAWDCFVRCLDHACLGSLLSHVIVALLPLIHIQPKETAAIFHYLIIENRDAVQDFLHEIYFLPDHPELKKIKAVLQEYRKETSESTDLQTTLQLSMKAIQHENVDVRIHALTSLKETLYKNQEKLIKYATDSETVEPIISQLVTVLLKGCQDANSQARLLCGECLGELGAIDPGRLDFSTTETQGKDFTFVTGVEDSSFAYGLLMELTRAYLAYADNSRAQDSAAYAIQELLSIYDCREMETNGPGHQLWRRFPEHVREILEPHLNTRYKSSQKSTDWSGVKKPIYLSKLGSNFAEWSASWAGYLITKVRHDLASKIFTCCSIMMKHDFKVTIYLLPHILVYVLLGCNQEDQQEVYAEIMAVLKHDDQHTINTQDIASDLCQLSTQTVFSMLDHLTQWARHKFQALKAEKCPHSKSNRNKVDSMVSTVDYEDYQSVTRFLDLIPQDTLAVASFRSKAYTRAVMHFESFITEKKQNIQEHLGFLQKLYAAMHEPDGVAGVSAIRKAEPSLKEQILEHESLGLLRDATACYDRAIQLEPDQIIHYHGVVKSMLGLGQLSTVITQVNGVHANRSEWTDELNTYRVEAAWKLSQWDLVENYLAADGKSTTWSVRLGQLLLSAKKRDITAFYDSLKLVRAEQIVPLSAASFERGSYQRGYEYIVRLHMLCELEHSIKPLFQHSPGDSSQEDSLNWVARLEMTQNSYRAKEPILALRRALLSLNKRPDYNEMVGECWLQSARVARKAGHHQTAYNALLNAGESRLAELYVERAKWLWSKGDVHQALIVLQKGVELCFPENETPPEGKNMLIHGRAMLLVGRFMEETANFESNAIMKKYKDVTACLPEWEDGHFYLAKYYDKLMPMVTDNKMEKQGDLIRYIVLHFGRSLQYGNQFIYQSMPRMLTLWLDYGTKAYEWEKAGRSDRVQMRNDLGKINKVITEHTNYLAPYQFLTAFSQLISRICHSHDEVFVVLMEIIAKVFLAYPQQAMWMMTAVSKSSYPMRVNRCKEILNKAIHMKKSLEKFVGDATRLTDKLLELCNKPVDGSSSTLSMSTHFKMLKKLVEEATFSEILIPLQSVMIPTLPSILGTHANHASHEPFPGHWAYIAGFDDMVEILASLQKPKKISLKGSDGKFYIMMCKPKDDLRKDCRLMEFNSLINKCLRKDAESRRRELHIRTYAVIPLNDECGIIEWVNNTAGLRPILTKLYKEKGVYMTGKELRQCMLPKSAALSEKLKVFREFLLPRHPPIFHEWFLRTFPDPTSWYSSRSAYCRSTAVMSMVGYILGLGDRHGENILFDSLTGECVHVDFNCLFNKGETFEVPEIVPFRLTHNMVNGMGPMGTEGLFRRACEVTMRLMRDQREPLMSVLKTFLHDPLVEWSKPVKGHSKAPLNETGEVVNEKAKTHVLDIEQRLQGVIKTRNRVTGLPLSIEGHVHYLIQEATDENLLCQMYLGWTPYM
T2 sequence (Q13535 whole entry): as above
T2 sequence (Q8WXE1 whole entry partner): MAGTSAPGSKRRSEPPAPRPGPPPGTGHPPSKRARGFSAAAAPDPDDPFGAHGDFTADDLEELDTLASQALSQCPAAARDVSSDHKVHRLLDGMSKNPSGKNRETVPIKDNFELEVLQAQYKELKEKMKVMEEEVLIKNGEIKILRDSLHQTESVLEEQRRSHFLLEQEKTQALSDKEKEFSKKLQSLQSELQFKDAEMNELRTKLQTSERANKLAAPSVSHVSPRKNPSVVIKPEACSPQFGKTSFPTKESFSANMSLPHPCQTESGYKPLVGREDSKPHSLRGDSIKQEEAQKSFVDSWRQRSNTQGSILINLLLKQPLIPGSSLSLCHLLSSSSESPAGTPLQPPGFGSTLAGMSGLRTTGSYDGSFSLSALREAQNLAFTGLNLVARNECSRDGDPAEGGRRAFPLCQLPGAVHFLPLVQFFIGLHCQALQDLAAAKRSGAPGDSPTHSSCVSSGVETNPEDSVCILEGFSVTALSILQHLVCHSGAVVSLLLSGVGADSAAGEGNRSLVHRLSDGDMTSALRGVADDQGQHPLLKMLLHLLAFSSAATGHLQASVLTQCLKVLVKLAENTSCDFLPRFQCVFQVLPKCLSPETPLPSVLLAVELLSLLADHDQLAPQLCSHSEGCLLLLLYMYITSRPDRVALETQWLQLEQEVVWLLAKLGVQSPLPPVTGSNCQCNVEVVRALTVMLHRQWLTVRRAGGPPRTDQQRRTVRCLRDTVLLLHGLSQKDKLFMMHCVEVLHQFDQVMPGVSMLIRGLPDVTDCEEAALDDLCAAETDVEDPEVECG

Compound | Ki [1] | Ki [2] | Cisplatin Sensitization Assay [3]
Nc1nn2cc(F)cnc2c1C(=O)Nc1cncnc1O[C@@H]1CN2CCC1CC2 [I-A-4, (S)-2-amino-6-fluoro-N-(4-(quinuclidin-3-yloxy)pyrimidin-5-yl)pyrazolo[1,5-a]pyrimidine-3-carboxamide] | 0.01 to 1 µM |  | ++ (Compounds with a Cisplatin sensitization value >0.02 μM but <0.2 μM are marked with “++.”)
Nc1nn2cc(F)cnc2c1C(=O)Nc1ccncc1N1CCC(C(=O)N2CCC(N3CCCC3)CC2)CC1 [I-C-8, 2-amino-6-fluoro-N-(3-(4-(4-(pyrrolidin-1-yl)piperidine-1-carbonyl)piperidin-1-yl)pyridin-4-yl)pyrazolo[1,5-a]pyrimidine-3-carboxamide] | 0.01 to 1 µM |  | +++ (Compounds with a Cisplatin sensitization value of <0.02 μM are marked with “+++.”)
COCc1c(C)nsc1NC(=O)c1c(N)nn2cc(F)cnc12 [I-E-20, 2-amino-6-fluoro-N-(4-(methoxymethyl)-3-methylisothiazol-5-yl)pyrazolo[1,5-a]pyrimidine-3-carboxamide] | 0.01 to 1 µM |  | +++ (Compounds with a Cisplatin sensitization value of <0.02 μM are marked with “+++.”)
CN1CCC[C@@H](Oc2ncncc2NC(=O)c2c(N)nn3cc(F)cnc23)C1 [I-A-1, (R)-2-amino-6-fluoro-N-(4-((1-methylpiperidin-3-yl)oxy)pyrimidin-5-yl)pyrazolo[1,5-a]pyrimidine-3-carboxamide] | 1 to 5 µM |  | + (Compounds with a Cisplatin sensitization value >0.2 μM but <5 μM are marked with “+.”)
CN1CCC(Oc2ncncc2NC(=O)c2c(N)nn3cc(Cl)cnc23)CC1 [I-A-6, 2-amino-6-chloro-N-(4-((1-methylpiperidin-4-yl)oxy)pyrimidin-5-yl)pyrazolo[1,5-a]pyrimidine-3-carboxamide] | 1 to 5 µM |  | ++ (Compounds with a Cisplatin sensitization value >0.02 μM but <0.2 μM are marked with “++.”)
CN1CCN(c2ncncc2NC(=O)c2c(N)nn3cc(F)cnc23)CC1 [I-A-20, 2-amino-6-fluoro-N-(4-(4-methylpiperazin-1-yl)pyrimidin-5-yl)pyrazolo[1,5-a]pyrimidine-3-carboxamide] | 1 to 5 µM |  | + (Compounds with a Cisplatin sensitization value >0.2 μM but <5 μM are marked with “+.”)

Second part, led by results:

Ki [1] | Ki [2] | Compound | Cisplatin Sensitization Assay [3]
0.01 to 1 µM | < 0.01 µM | Nc1nn2cc(F)cnc2c1C(=O)Nc1ccncc1N1CCN(C2COC2)CC1 [I-C-1, 2-amino-6-fluoro-N-(3-(4-(oxetan-3-yl)piperazin-1-yl)pyridin-4-yl)pyrazolo[1,5-a]pyrimidine-3-carboxamide] | ++ (Compounds with a Cisplatin sensitization value >0.02 μM but <0.2 μM are marked with “++.”)
0.01 to 1 µM |  | CN1CCN(CC2CCN(c3cnncc3NC(=O)c3c(N)nn4cc(F)cnc34)CC2)CC1 [I-B-11, 2-amino-6-fluoro-N-(5-(4-((4-methylpiperazin-1-yl)methyl)piperidin-1-yl)pyridazin-4-yl)pyrazolo[1,5-a]pyrimidine-3-carboxamide] | ++ (Compounds with a Cisplatin sensitization value >0.02 μM but <0.2 μM are marked with “++.”)
0.01 to 1 µM |  | CC(=O)N1CC=C(c2c(C)nsc2NC(=O)c2c(N)nn3cc(F)cnc23)CC1 [I-E-9, N-(4-(1-acetyl-1,2,3,6-tetrahydropyridin-4-yl)-3-methylisothiazol-5-yl)-2-amino-6-fluoropyrazolo[1,5-a]pyrimidine-3-carboxamide] | +++ (Compounds with a Cisplatin sensitization value of <0.02 μM are marked with “+++.”)
0.01 to 1 µM |  | Nc1nn2cc(F)cnc2c1C(=O)Nc1cncn1-c1cccnc1 [I-D-5, 2-amino-6-fluoro-N-(1-(pyridin-3-yl)-1H-imidazol-5-yl)pyrazolo[1,5-a]pyrimidine-3-carboxamide] | ++ (Compounds with a Cisplatin sensitization value >0.02 μM but <0.2 μM are marked with “++.”)
0.01 to 1 µM |  | CN1CCN(c2cnncc2NC(=O)c2c(N)nn3cc(F)cnc23)CC1 [I-B-1, 2-amino-6-fluoro-N-(5-(4-methylpiperazin-1-yl)pyridazin-4-yl)pyrazolo[1,5-a]pyrimidine-3-carboxamide] | ++ (Compounds with a Cisplatin sensitization value >0.02 μM but <0.2 μM are marked with “++.”)
0.01 to 1 µM |  | Nc1nn2cc(F)cnc2c1C(=O)Nc1cncn1C1CCOCC1 [I-D-4, 2-amino-6-fluoro-N-(1-(tetrahydro-2H-pyran-4-yl)-1H-imidazol-5-yl)pyrazolo[1,5-a]pyrimidine-3-carboxamide] | ++ (Compounds with a Cisplatin sensitization value >0.02 μM but <0.2 μM are marked with “++.”)
0.01 to 1 µM | < 0.01 µM | CN1CCN(C(=O)c2ccc(-c3cnncc3NC(=O)c3c(N)nn4cc(F)cnc34)cc2)CC1 [I-B-13, 2-amino-6-fluoro-N-(5-(4-(4-methylpiperazine-1-carbonyl)phenyl)pyridazin-4-yl)pyrazolo[1,5-a]pyrimidine-3-carboxamide] | ++ (Compounds with a Cisplatin sensitization value >0.02 μM but <0.2 μM are marked with “++.”)
< 0.01 µM |  | Cc1nsc(NC(=O)c2c(N)nn3cc(F)cnc23)c1CN1CCN(C)CC1 [I-E-19, 2-amino-6-fluoro-N-(3-methyl-4-((4-methylpiperazin-1-yl)methyl)isothiazol-5-yl)pyrazolo[1,5-a]pyrimidine-3-carboxamide] | +++ (Compounds with a Cisplatin sensitization value of <0.02 μM are marked with “+++.”)
